Tests used:
[1] = system: Escherichia coli 0157:H7 (ATCC 43895); experiment: Time-kill determination; assay type: cell-based
Method: (§1) The assessment of efficacy of 9-decenoic acid against a spectrum of microorganisms was determined using the American Society for Testing and Materials (ASTM) procedure entitled “Standard Test Method for the Assessment of Microbiocidal Activity of Test Materials Using a Time-Kill Procedure,” October 1998. This procedure incorporates the recommendations described in the “Manual of Clinical Microbiology,” 5th ed., edited by A. B. Balows et al., ASM, Washington, and is directed by the Federal Register, June 1994.
(§2) Challenge organisms were prepared as follows. Cultures of the following organisms were obtained: Staphylococcus aureus (ATCC 6538), Pseudomonas aeruginosa (ATCC 15442), Staphylococcus epidermidis (ATCC 12228), Klebsiella pneumoniae (ATCC 4352), Escherichia coli 0157:H7 (ATCC 43895) and Candida albicans (ATCC 10231). The stock cultures were transferred to sterile tubes and sterile tryptic soy broth (TSB) was added to the cultures. The mixture was incubated for 18-24 hours at 37° C. (±2° C.). A portion of this culture was then transferred onto TSA plates and incubated for 18-24 hours at 37° C. (±2° C.). The plates were removed from incubation and the bacterial growth was washed from the agar surface using Butterfield's Phosphate Buffered Dilution Water (PBDW).
(§3) The bacterial suspension was adjusted to contain approximately 10^8 Colony Forming Units (CFU) per ml with PBDW. The concentration was adjusted to an optical density (OD) of 0.4-0.5 (versus a PBDW blank) at 620 nm in a UV-Vis spectrophotometer, and this optical density gave approximately 10^8 colony forming units per milliliter (cfu/ml). The standardized suspension was stored under appropriate conditions until it was used as the challenge inoculum.
(§4) Concentrated 9-decenoic acid (97%) was diluted in filter sterilized isopropanol to yield a 25,000 ppm stock solution. Subsequent dilutions to the 9-decenoic acid stock solutions were made with sterile Deionized Water (DI) to achieve concentrations of 0.1%, 0.05%, 0.01% and 0.001%. The pH was determined for each dilution; pH values ranged from 4.4-4.1. […] In addition, 9-decenoic acid stock solution was combined with Triclosan™ (obtained from Ciba Specialty Chemical Corporation, under the tradename Irgasan DP 300™) in various ratios, as indicated in Table 8. The pH of the combined solution was 7.
(§5) Compliant with the ASTM procedure cited, for each challenge microorganism a 9.9 ml aliquot of the prepared 9-decenoic acid suspension was added to a sterile tube. A 0.1 ml aliquot of the standardized inoculum was added to the 9-decenoic acid solution representing the start of the test exposure. The inoculated 9-decenoic acid solution was immediately mixed thoroughly. The inoculated suspension was held at room temperature for 0.5, 2, 5, 7 and 10-minute exposure times for tests run at pH level of approximately 4. The pH 7 tests were held at room temperature for 0.5 and 2 minutes.
(§6) At each exposure sample time, a 1.0 ml aliquot of the inoculated 9-decenoic acid suspension was transferred to 9.0 ml of D/E Neutralizing Broth. Additional ten-fold serial dilutions were made in PBDW and plated in duplicate on TSA. All plates were incubated for 48 hours at 37° C. (±2° C.) and visually examined for growth. The plates were enumerated, recorded and log kill determined for each time point.
(§7) The following study controls were conducted: culture purity, neutralizer sterility, initial suspension population, test population, neutralization verification and a negative control using isopropanol. Culture purity was verified by performing a streak plate for isolated colonies of each culture used. All cultures were determined to be pure based on consistent colony morphology typical for the test organism. The neutralizer sterility was confirmed by no growth in an incubated sample.
(§8) The populations of the initial and test culture were determined by serial dilution, plating and enumerating after incubation. The initial suspension were determined to be ≧10^4 CFU/ml. […]

[2] = system: Staphylococcus aureus (ATCC 6538); experiment: Time-kill determination; assay type: cell-based
Method: as §1, §2, §3, §4, §5, §6, §7, §8

[3] = 0.01% 9-decenoic acid, pH 4.4, exposure 0.5 min
[4] = 0.01% 9-decenoic acid, pH 4.4, exposure 2 min
[5] = 0.01% 9-decenoic acid, pH 4.4, exposure 5 min
[6] = 0.01% 9-decenoic acid, pH 4.4, exposure 7 min
[7] = 0.01% 9-decenoic acid, pH 4.4, exposure 10 min
[8] = 0.05% 9-decenoic acid, pH 4.1, exposure 0.5 min
[9] = 0.05% 9-decenoic acid, pH 4.1, exposure 2 min
[10] = 0.05% 9-decenoic acid, pH 4.1, exposure 5 min
[11] = 0.05% 9-decenoic acid, pH 4.1, exposure 7 min
[12] = 0.05% 9-decenoic acid, pH 4.1, exposure 10 min
[13] = 0.05% 9-decenoic acid, pH 7, exposure 0.5 min
[14] = 0.05% 9-decenoic acid, pH 7, exposure 2 min
[15] = 0.1% 9-decenoic acid, pH 4.1, exposure 0.5 min
[16] = 0.1% 9-decenoic acid, pH 4.1, exposure 2 min
[17] = 0.1% 9-decenoic acid, pH 4.1, exposure 5 min
[18] = 0.1% 9-decenoic acid, pH 4.1, exposure 7 min
[19] = 0.1% 9-decenoic acid, pH 4.1, exposure 10 min
[20] = 0.75% 9-decenoic acid, pH 7, exposure 0.5 min
[21] = 0.75% 9-decenoic acid, pH 7, exposure 2 min
[22] = 1% 9-decenoic acid, pH 7, exposure 0.5 min
[23] = 1% 9-decenoic acid, pH 7, exposure 2 min

C=CCCCCCCCC(=O)O [9-decenoic acid]
Log reduction [1, 3]: 1.3 log
Log reduction [1, 4]: 1.6 log
Log reduction [1, 5]: 2.2 log
Log reduction [1, 6]: 1.8 log
Log reduction [1, 7]: 2.7 log
Log reduction [1, 8]: >6.2 log
Log reduction [1, 9]: >6.2 log
Log reduction [1, 10]: >6.2 log
Log reduction [1, 11]: >6.2 log
Log reduction [1, 12]: >6.2 log
Log reduction [1, 13]: 0 log
Log reduction [1, 14]: 0 log
Log reduction [1, 15]: >6.2 log
Log reduction [1, 16]: >6.2 log
Log reduction [1, 17]: >6.2 log
Log reduction [1, 18]: >6.2 log
Log reduction [1, 19]: >6.2 log
Enhancement of disinfectant activity of marginally-effective concentrations of Triclosan ([1]; 0.5% 9-decenoic acid added to Triclosan, pH 7): 1-2 log reductions
Log reduction ([1]; 0.5% 9-decenoic acid, pH 7, exposure 0.5 min): 0 log
Log reduction ([1]; 0.5% 9-decenoic acid, pH 7, exposure 2 min): 0 log
Log reduction [1, 20]: 0.83 log
Log reduction [1, 21]: >4.2 log
Log reduction [1, 22]: >4.2 log
Log reduction [1, 23]: >4.2 log
Log reduction [2, 3]: 1.4 log
Log reduction [2, 4]: 4.6 log
Log reduction [2, 5]: >6.5 log
Log reduction [2, 6]: >6.5 log
Log reduction [2, 7]: >6.5 log
Log reduction [2, 8]: >6.5 log
Log reduction [2, 9]: >6.5 log
Log reduction [2, 10]: >6.5 log
Log reduction [2, 11]: >6.5 log
Log reduction [2, 12]: >6.5 log
Log reduction [2, 13]: 0 log
Log reduction [2, 14]: 0 log
Log reduction [2, 15]: >6.5 log
Log reduction [2, 16]: >6.5 log
Log reduction [2, 17]: >6.5 log
Log reduction [2, 18]: >6.5 log
Log reduction [2, 19]: >6.5 log
Log reduction [2, 20]: 0.67 log
Log reduction [2, 21]: 1 log
Log reduction [2, 22]: 2.1 log
Log reduction [2, 23]: 3.2 log
